The values that follow are results of earlier work, collected in patent publication US11234954B2, “Low-dose doxepin for treatment of sleep disorders in elderly patients” (Pernix Sleep, Inc., priority 2006, dated 2022).

For this data set the following is noted: major active metabolite of doxepin; cited from earlier work.

Regarding `CNCC/C=C1\c2ccccc2COc2ccccc21` [desmethyldoxepin, Desmethyldoxepin], the half-life is 51 h.

What is called half-life is how long it takes for the measured level to halve.
